Experimental findings from patent US20220395496A1 (Hoffmann-La Roche Inc., priority 2019, published 2022) are described below.

The target of this assay is T1, human TLR7 (Homo sapiens, UniProt Q9NYK1).
T1 sequence (Q9NYK1 27-1049): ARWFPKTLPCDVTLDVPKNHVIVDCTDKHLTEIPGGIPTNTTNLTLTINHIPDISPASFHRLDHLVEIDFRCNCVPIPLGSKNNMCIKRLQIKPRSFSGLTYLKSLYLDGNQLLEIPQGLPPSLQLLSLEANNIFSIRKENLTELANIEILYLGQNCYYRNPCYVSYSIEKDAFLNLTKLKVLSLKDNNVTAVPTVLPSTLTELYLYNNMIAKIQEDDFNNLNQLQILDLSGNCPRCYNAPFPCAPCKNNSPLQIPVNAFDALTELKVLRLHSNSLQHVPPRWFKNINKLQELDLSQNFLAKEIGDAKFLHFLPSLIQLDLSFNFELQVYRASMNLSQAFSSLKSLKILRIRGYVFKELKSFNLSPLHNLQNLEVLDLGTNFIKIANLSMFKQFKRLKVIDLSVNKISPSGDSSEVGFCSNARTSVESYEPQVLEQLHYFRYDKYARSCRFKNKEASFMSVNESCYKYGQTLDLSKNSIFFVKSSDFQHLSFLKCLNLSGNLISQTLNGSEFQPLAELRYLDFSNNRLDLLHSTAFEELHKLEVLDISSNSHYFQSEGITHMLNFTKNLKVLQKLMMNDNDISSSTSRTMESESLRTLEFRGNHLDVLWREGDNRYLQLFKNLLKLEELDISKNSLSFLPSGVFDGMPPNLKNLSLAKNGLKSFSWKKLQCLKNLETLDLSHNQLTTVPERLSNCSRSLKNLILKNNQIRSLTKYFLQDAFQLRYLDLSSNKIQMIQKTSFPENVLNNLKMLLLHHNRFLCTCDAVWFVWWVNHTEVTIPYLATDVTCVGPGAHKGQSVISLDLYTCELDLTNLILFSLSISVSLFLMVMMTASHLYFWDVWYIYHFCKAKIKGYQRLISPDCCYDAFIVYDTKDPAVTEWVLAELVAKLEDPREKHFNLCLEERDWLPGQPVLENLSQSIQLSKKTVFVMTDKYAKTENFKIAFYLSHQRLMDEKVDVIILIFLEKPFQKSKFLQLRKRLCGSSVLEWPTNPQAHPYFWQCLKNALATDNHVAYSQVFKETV
The assay is described as follows: HEK293-Blue-hTLR-7 cells assay (SEAP reporter, R848 stimulation). Format: cell-based. To be noted: HEK293-Blue-hTLR7 cells, R848, 20 hrs; lowest tested concentration 0.0032. The protocol: The following tests were carried out in order to determine the activity of the compounds of this invention in HEK293-Blue-hTLR-7/8/9 cells assay.
HEK293-Blue-hTLR-7 Cells Assay:
A stable HEK293-Blue-hTLR-7 cell line was purchased from InvivoGen (Cat. #: hkb-htlr7, San Diego, Calif., USA). These cells were originally designed for studying the stimulation of human TLR7 by monitoring the activation of NF-κB. A SEAP (secreted embryonic alkaline phosphatase) reporter gene was placed under the control of the IFN-β minimal promoter fused to five NF-κB and AP-1-binding sites. The SEAP was induced by activating NF-κB and AP-1 via stimulating HEK-Blue hTLR7 cells with TLR7 ligands. Therefore the reporter expression was declined by TLR7 antagonist under the stimulation of a ligand, such as R848 (Resiquimod), for incubation of 20 hrs. The cell culture supernatant SEAP reporter activity was determined using QUANTI-Blue™ kit (Cat. #: rep-qb1, Invivogen, San Diego, Calif., USA) at a wavelength of 640 nm, a detection medium that turns purple or blue in the presence of alkaline phosphatase.
HEK293-Blue-hTLR7 cells were incubated at a density of 250,000˜450,000 cells/mL in a volume of 170 μL in a 96-well plate in Dulbecco's Modified Eagle's medium (DMEM) containing 4.5 g/L glucose, 50 U/mL penicillin, […], […], 2 mM L-glutamine, 10% (v/v) heat-inactivated fetal bovine serum with addition of 20 μL test compound in a serial dilution in the presence of final DMSO at 1% and 10 μL of 20 uM R848 in above DMEM, perform incubation under 37° C. in a CO2 incubator for 20 hrs. Then 20 μL of the supernatant from each well was incubated with 180 μL Quanti-blue substrate solution at 37° C. for 2 hrs and the absorbance was read at 620-655 nm using a spectrophotometer. The signalling pathway that TLR7 activation leads to downstream NF-κB activation has been widely accepted, and therefore similar reporter assay was modified for evaluating TLR7 antagonist.
One may read the IC50 as the concentration at which inhibition is half-maximal. Take `C[C@H]1C[C@@H](NCc2ccc(N3CCC(N)C3)cc2)CN(c2ccc(C#N)c3ncccc23)C1` (stereo partly drawn) [Example 13, 5-[(3R,5S)-3-[[4-(3-aminopyrrolidin-1-yl)phenyl]methylamino]-5-methyl-1-piperidyl]quinoline-8-carbonitrile]: half-maximal inhibition (IC50) required 19 nM. In the case of `C[C@H]1C[C@@H](NCc2ccccc2)CN(c2ccc(C#N)c3ncccc23)C1` [Example R1, reference compound], the 50% inhibitory concentration (IC50) amounted to 89 nM.

Regarding `C[C@H]1C[C@@H](NCc2cccc(N3CCN(C)CC3)c2)CN(c2ccc(C#N)c3ncccc23)C1` [Example 6, 5-[(3S,5R)-3-methyl-5-[[3-(4-methylpiperazin-1-yl)phenyl]methylamino]-1-piperidyl]quinoline-8-carbonitrile], the concentration for half-maximal inhibition (IC50) was found to be 42 nM. The result for `C[C@H]1C[C@@H](N2Cc3cc(N4CCNCC4)cnc3C2)CN(c2ccc(C#N)c3ncccc23)C1` [Example 23, 5-[(3S,5R)-3-methyl-5-(3-piperazin-1-yl-5,7-dihydropyrrolo[3,4-b]pyridin-6-yl)-1-piperidyl]quinoline-8-carbonitrile] reads 23 nM. The result for `C[C@H]1C[C@@H](NCc2cnc(N3CCNCC3)cn2)CN(c2ccc(C#N)c3ncccc23)C1` [Example 31, 5-[(3S,5R)-3-methyl-5-[(5-piperazin-1-ylpyrazin-2-yl)methylamino]-1-piperidyl]quinoline-8-carbonitrile] reads no more than 3 nM; that for `C[C@H]1C[C@@H](N2Cc3ccccc3C2)CN(c2ccc(C#N)c3ncccc23)C1` [Example R2, reference compound], 48 nM. For `C[C@H]1C[C@@H](NCc2cnc(N3CCNCC3)nc2)CN(c2ccc(C#N)c3ncccc23)C1` [Example 17, 5-[(3S,5R)-3-methyl-5-[(2-piperazin-1-ylpyrimidin-5-yl)methylamino]-1-piperidyl]quinoline-8-carbonitrile], the 50% inhibitory concentration (IC50) is 7 nM.

In the case of `C[C@H]1C[C@@H](NCc2cccc(N3CCNCC3)c2)CN(c2ccc(C#N)c3ncccc23)C1` [Example 8, 5-[(3S,5R)-3-methyl-5-[(3-piperazin-1-ylphenyl)methylamino]-1-piperidyl]quinoline-8-carbonitrile], the half-maximal inhibitory concentration (IC50) is 39 nM. Take `C[C@H]1C[C@@H](NCc2ccc3c(c2)CCNC3)CN(c2ccc(C#N)c3ncccc23)C1` [Example 11, 5-[(3S,5R)-3-methyl-5-(1,2,3,4-tetrahydroisoquinolin-6-ylmethylamino)-1-piperidyl]quinoline-8-carbonitrile]: the half-maximal inhibitory concentration (IC50) worked out at 15 nM. Against the preceding compound, the IC50 is about 2.6-fold lower. Then `C[C@H]1C[C@@H](NCc2cnc(N3CCN(C)CC3)nc2)CN(c2ccc(C#N)c3ncccc23)C1` [Example 16, 5-[(3S,5R)-3-methyl-5-[[2-(4-methylpiperazin-1-yl)pyrimidin-5-yl]methylamino]-1-piperidyl]quinoline-8-carbonitrile], with 11 nM; and `C[C@H]1C[C@@H](N(C)Cc2ccc(N3CCNCC3)cc2)CN(c2ccc(C#N)c3ncccc23)C1` [Example 9, 5-[(3S,5R)-3-methyl-5-[methyl-[(4-piperazin-1-ylphenyl)methyl]amino]-1-piperidyl]quinoline-8-carbonitrile], with 15 nM; and `C[C@H]1C[C@@H](NCc2ccc(N3CCNCC3)cc2)CN(c2ccc(C#N)n3nccc23)C1` [Example 21, 4-[(3S,5R)-3-methyl-5-[(4-piperazin-1-ylphenyl)methylamino]-1-piperidyl]pyrazolo[1,5-a]pyridine-7-carbonitrile], with 63 nM. The compound `Cc1cc(-c2ccc(CN[C@@H]3C[C@H](C)CN(c4ccc(C#N)c5ncccc45)C3)cc2)cc(C)n1` [Example 15, 5-[(3R,5S)-3-[[4-(2,6-dimethyl-4-pyridyl)phenyl]methylamino]-5-methyl-1-piperidyl]quinoline-8-carbonitrile] displayed an IC50 of 84 nM.

`C[C@H]1C[C@@H](NCc2cnc(N3CCN[C@H](C)C3)nc2)CN(c2ccc(C#N)c3ncccc23)C1` [Example 28, 5-[(3S,5R)-3-methyl-5-[[2-[(3R)-3-methylpiperazin-1-yl]pyrimidin-5-yl]methylamino]-1-piperidyl]quinoline-8-carbonitrile] displayed a concentration for half-maximal inhibition (IC50) of 12 nM. On to `C[C@H]1C[C@@H](NCc2ccc(N3CCNCC3)cc2)CN(c2ccc(C#N)c3ncccc23)C1` [Example 1, 5-[(3S,5R)-3-methyl-5-[(4-piperazin-1-ylphenyl)methylamino]1-piperidyl]quinoline-8-carbonitrile], for which the IC50 came to 16 nM. The IC50 values of the last two compounds are within 1.5-fold of each other. The result for `C[C@H]1C[C@@H](NCc2ccc(N3CCNCC3)cc2F)CN(c2ccc(C#N)c3ncccc23)C1` [Example 4, 5-[(3R,58)-3-[(2-fluoro-4-piperazin-1-yl-phenyl)methylamino]-5-methyl-1-piperidyl]quinoline-8-carbonitrile] reads 13 nM; that for `CC(N[C@@H]1C[C@H](C)CN(c2ccc(C#N)c3ncccc23)C1)c1ccc(N2CCNCC2)cc1` (stereo partly drawn) [Example 26, 5-[(3S,5R)-3-methyl-5-[1-(4-piperazin-1-ylphenyl)ethylamino]-1-piperidyl]quinoline-8-carbonitrile], 91 nM; that for `C[C@H]1C[C@@H](NCc2ccc(N3CCN(C)CC3)cn2)CN(c2ccc(C#N)c3ncsc23)C1` [Example 18, 7-[(3S,5R)-3-methyl-5-[[5-(4-methylpiperazin-1-yl)-2-pyridyl]methylamino]-1-piperidyl]-1,3-benzothiazole-4-carbonitrile], 11 nM.

On to `C[C@H]1C[C@@H](NCc2cnc(N3CCN[C@@H](C)C3)nc2)CN(c2ccc(C#N)c3ncccc23)C1` [Example 29, 5-[(3S,5R)-3-methyl-5-[[2-[(3S)-3-methylpiperazin-1-yl]pyrimidin-5-yl]methylamino]-1-piperidyl]quinoline-8-carbonitrile], for which the 50% inhibitory concentration (IC50) is 8 nM. `C[C@H]1C[C@@H](NCc2ccc(C3CCNCC3)cc2)CN(c2ccc(C#N)c3ncccc23)C1` [Example 2, 5-[(3S,5R)-3-methyl-5-[[4-(4-piperidyl)phenyl]methylamino]-1-piperidyl]quinoline-8-carbonitrile] had a half-maximal inhibitory concentration (IC50) of 32 nM.

As for `C[C@H]1C[C@@H](NCc2ncc(N3CCNCC3)cn2)CN(c2ccc(C#N)c3ncccc23)C1` [Example 25, 5-[(3S,5R)-3-methyl-5-[(5-piperazin-1-ylpyrimidin-2-yl)methylamino]-1-piperidyl]quinoline-8-carbonitrile], the IC50 is 15 nM. Compound `C[C@H]1C[C@@H](NCc2ccc(N3CCNCC3)nc2)CN(c2ccc(C#N)c3ncccc23)C1` [Example 10] returned an IC50 of 7 nM.

Take `C[C@H]1C[C@@H](N2CCc3cc(N4CCNCC4)ccc3C2)CN(c2ccc(C#N)c3ncccc23)C1` (relative stereo) [Example 24, 5-[cis-3-methyl-5-(6-piperazin-1-yl-3,4-dihydro-1H-isoquinolin-2-yl)-1-piperidyl]quinoline-8-carbonitrile]: half-maximal inhibition (IC50) was put at 52 nM.

In turn, `C[C@H]1C[C@@H](NCc2ccc3c(n2)CCNC3)CN(c2ccc(C#N)c3ncccc23)C1` [Example 30, 5-[(3S,5R)-3-methyl-5-(5,6,7,8-tetrahydro-1,6-naphthyridin-2-ylmethylamino)-1-piperidyl]quinoline-8-carbonitrile] displayed an IC50 of 16 nM.
